We go through 45 compounds from patent publication US9994552B2, “Compositions useful for treating disorders related to kit” (BLUEPRINT MEDICINES CORPORATION, priority 2013, dated 2018).

SMILES strings stand for the structures.

Broadly, the IC50 is the concentration that inhibits the measured activity by half.

The target in one assay is wild type Kit (Homo sapiens (Human), UniProt P10721). The assay can be described thus: Kit wild type assay at Km (Caliper electrophoretic mobility shift). In kind it is biochemical. The settings on record: wild type Kit 2 nM, 400 uM ATP (Km), 1 uM Srctide, 25 C, 90 minutes; read-out: INH-KITWT ENZ-KM IC50 (nM) (Num). The protocol:
(§1) In order to assess the activity of chemical compounds against the relevant kinase of interest, the Caliper LifeSciences electrophoretic mobility shift technology platform is used. Fluorescently labeled substrate peptide is incubated in the presence of kinase and ATP so that a […] proportion of the peptide is phosphorylated. At the end of the reaction, the mix of phosphorylated (product) and non-phosphorylated (substrate) peptides are passed through the microfluidic system of the Caliper EZ Reader 2, under an applied potential difference. The presence of the phosphate group on the product peptide provides a difference in mass and charge between those of the substrate peptide, resulting in a separation of the substrate and product pools in the sample. As the pools pass a LEDS within the instrument, these pools are detected and resolved as separate peaks. The ratio between these peaks therefore reflects the activity of the chemical matter at that concentration in that well, under those conditions.
(§2) The reaction was stopped by the addition of 70 ul of Stop buffer (100 mM HEPES pH 7.5, 0.015% Brij 35, 35 mM EDTA and 0.2% of Coating Reagent 3 (Caliper Lifesciences)). The plate was then read on a Caliper EZReader 2 (protocol settings: −1.9 psi, upstream voltage −700, downstream voltage −3000, post sample sip 35 s).

The target in the next assay is D816V Kit (Homo sapiens (Human), UniProt P10721, D816V). The assay is described as follows: Kit D816V assay at Km (Caliper electrophoretic mobility shift). Type of assay: biochemical. The settings on record: for IC50: D816V Kit 0.5 nM, 15 uM ATP (Km), 1 uM Srctide, 25 C, 90 minutes, read-out: INH-KITD816V ENZ-KM IC50 (nM) (Num); for times more potent against the D816V mutant than against the wild-type Kit: D816V Kit versus wild-type Kit, enzyme assays at Km. As for the experimental part:
as §1, §2

Sequence of wild type Kit (P10721 26-976): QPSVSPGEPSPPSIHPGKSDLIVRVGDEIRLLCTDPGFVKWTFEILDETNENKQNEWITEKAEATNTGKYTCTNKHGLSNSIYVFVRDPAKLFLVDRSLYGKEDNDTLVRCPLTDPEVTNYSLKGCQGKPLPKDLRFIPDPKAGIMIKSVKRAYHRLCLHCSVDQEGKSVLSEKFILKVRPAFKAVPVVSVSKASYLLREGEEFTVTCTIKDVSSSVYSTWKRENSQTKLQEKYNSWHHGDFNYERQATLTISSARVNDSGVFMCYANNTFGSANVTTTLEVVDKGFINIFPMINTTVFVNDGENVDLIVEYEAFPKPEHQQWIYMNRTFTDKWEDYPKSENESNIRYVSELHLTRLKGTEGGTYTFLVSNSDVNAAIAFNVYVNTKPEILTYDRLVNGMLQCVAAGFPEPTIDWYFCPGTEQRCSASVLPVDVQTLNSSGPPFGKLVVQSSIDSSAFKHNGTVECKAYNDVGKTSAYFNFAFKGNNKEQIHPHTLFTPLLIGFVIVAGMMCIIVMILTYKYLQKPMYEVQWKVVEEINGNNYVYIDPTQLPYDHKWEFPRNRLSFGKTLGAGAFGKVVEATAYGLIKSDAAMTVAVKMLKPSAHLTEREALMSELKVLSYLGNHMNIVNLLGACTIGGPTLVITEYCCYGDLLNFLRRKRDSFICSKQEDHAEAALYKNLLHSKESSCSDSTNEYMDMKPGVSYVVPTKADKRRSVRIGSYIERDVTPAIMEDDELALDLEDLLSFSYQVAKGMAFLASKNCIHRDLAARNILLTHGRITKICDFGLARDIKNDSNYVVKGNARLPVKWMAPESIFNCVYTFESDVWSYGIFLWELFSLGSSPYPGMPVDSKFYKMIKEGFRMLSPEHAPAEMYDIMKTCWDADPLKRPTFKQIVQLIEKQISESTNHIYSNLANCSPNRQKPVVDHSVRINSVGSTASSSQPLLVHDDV
Sequence of D816V Kit (P10721 26-976 D816V): as the sequence (P10721 26-976) above, with D791V counted along it

For the compound `COc1cc2ncnc(N3CCN(c4ncc(Cc5ccccc5)cn4)CC3)c2cc1OCCN1CCCC1=O` [Compound 110], the IC50 on wild type Kit was 11 to 100 nM; at D816V Kit, less than 1 nM.
For `COc1cc2ncnc(N3CCN(c4ncc(Cc5ccc(OC(F)F)cc5)cn4)CC3)c2cc1OC` [Compound 86], the IC50 on wild type Kit lay in the range of 100 to 1000 nM; on D816V Kit, 1.01 to 10 nM.
`COc1ccc(Cc2cnc(N3CCN(c4ncnc5cc(OC)c(OC)cc45)CC3)nc2)cc1` [Compound 58]: the IC50 on wild type Kit was 11 to 100 nM; on D816V Kit, 1.01 to 10 nM.
The corresponding values for `COc1cc2ncnc(N3CCN(c4ncc(Cc5ccc(F)cc5)cn4)CC3)c2cc1OC` [Compound 38, 4-(4-(5-(4-fluorobenzyl)pyrimidin-2-yl)piperazin-1-yl)-6,7-dimethoxyquinazoline] are 11 to 100 nM and 1.01 to 10 nM.
Regarding `COc1cc2ncnc(N3CCN(c4ncc(Cc5ccc(C(C)(C)C)cc5)cn4)CC3)c2cc1OC` [Compound 81], the 50% inhibitory concentration (IC50) was greater than 1000 nM at wild type Kit and 10 to 100 nM on D816V Kit.
On to `COc1cc2ncnc(N3CCN(c4ncc(Nc5ccccc5C)cn4)CC3)c2cc1OC` [Compound 32], for which the IC50 is 100 to 1000 nM at wild type Kit and 10 to 100 nM on D816V Kit.
Consider `COc1cc2ncnc(N3CCN(c4ncc(Cc5ccccc5)c(=O)[nH]4)CC3)c2cc1OC[C@@H]1CCCN(C)C1` [Compound 128], for which the IC50 on wild type Kit lay in the range of 11 to 100 nM; at D816V Kit, 1.01 to 10 nM.
The corresponding values for `COc1cc2ncnc(N3CCN(c4ncc(OCc5ccccc5)cn4)[C@H](C)C3)c2cc1OC` [Compound 60] are 100 to 1000 nM and 10 to 100 nM.
Taken in the same sequence, the figures for `COc1cc2ncnc(N3CCN(c4ncc(OCc5cc(Cl)cc(Cl)c5)cn4)CC3)c2cc1OC` [Compound 103] were greater than 1000 nM and greater than 100 nM.
Take `COc1ccc(COc2cnc(N3CCN(c4ncnc5cc(OC)c(OC)cc45)CC3)nc2)cc1` [Compound 77]: the IC50 at wild type Kit is greater than 1000 nM. Also, on D816V Kit, the concentration for half-maximal inhibition (IC50) lay in the range of 10 to 100 nM and the “times more potent against the D816V mutant than against the wild-type Kit” value (“times more potent” for short) is “at least 100 times”.
In the case of `COc1cc2ncnc(N3CCN(c4ncc(C(=O)Nc5ccccc5)cn4)CC3)c2cc1OC` [Compound 51], the concentration for half-maximal inhibition (IC50) on wild type Kit is greater than 1000 nM; at D816V Kit, 10 to 100 nM.
The corresponding values for `COc1cc2ncnc(N3CCN(c4ncc(Nc5ccccn5)cn4)CC3)c2cc1OC` [Compound 15] are 100 to 1000 nM and 10 to 100 nM.
Take `COc1cc2ncnc(N3CCN(c4ncc(S(=O)(=O)c5ccccc5)cn4)CC3)c2cc1OC` [Compound 78]: the half-maximal inhibitory concentration (IC50) was greater than 1000 nM at wild type Kit and 10 to 100 nM on D816V Kit.
The corresponding values for `COc1cc2ncnc(N3CCN(c4ncc(Nc5cccnc5)cn4)CC3)c2cc1OC` [Compound 16] are 100 to 1000 nM and 10 to 100 nM.
Taken in the same sequence, the figures for `COc1cc2ncnc(N3CCN(c4ncc(Cc5ccccc5)cn4)CC3)c2cc1OC[C@@H]1CCCN(C)C1` [Compound 113] were 11 to 100 nM and less than 1 nM.
Taken in the same sequence, the figures for `COc1cc2ncnc(N3CCN(c4ncc(Oc5ccc(F)cc5)cn4)CC3)c2cc1OCC1CCN(C)CC1` [Compound 133] were 11 to 100 nM and 1.01 to 10 nM.
As to `COc1cc2ncnc(N3CCN(c4ncc(Sc5ccccc5)cn4)CC3)c2cc1OC` [Compound 40], the values for the half-maximal inhibitory concentration (IC50) on wild type Kit and at D816V Kit were 100 to 1000 nM and 1.01 to 10 nM, respectively.
Take `COc1cc2ncnc(N3CCN(c4ncc(NC(C)c5ccccc5)cn4)CC3)c2cc1OC` (centres unmarked) [Compound 56]: the IC50 is greater than 1000 nM on wild type Kit and 10 to 100 nM at D816V Kit.
The corresponding values for `COc1cc2ncnc(N3CCN(c4ncc(O[C@H](C)c5ccccc5)cn4)CC3)c2cc1OC` [Compound 59] are 100 to 1000 nM and 1.01 to 10 nM.
The corresponding values for `COc1cc2ncnc(N3CCN(c4ncc(Cc5ccccc5)cn4)CC3)c2cc1OC[C@H]1CNCCO1` [Compound 104] are 11 to 100 nM and less than 1 nM.
The corresponding values for `CN1CCC(COc2ccc3ncnc(N4CCN(c5ncc(Cc6ccccc6)cn5)CC4)c3c2)CC1` [Compound 87] are 100 to 1000 nM and 1.01 to 10 nM.
Take `COc1cc2ncnc(N3CCN(c4ncc(OCc5ccc(C)cc5)cn4)CC3)c2cc1OC` [Compound 62]: the concentration for half-maximal inhibition (IC50) on wild type Kit was greater than 1000 nM. Moreover, at D816V Kit, the half-maximal inhibitory concentration (IC50) was in the range of 10 to 100 nM and the “times more potent” value is listed as “at least 100 times”.
`CCOc1cc2ncnc(N3CCN(c4ncc(Cc5ccccc5)c(N)n4)CC3)c2cc1OCC1CCN(C)CC1` [Compound 135]: the IC50 at wild type Kit was less than 10 nM; on D816V Kit it was less than 1 nM.
For `COc1cc2ncnc(N3CCN(c4nccc(Cc5ccccc5)n4)CC3)c2cc1OC` [Compound 12], the values for the IC50 at wild type Kit and at D816V Kit were greater than 1000 nM and greater than 100 nM, respectively.
The corresponding values for `COc1cc2ncnc(N3CCN(c4ncc(Cc5ccccc5)c(=O)[nH]4)CC3)c2cc1OCC1CN(C)CCO1` (centres unmarked) [Compound 130] are less than 10 nM and 1.01 to 10 nM.
Regarding `c1ccc(Cc2cnc(N3CCN(c4ncnc5c4CNC5)CC3)nc2)cc1` [Compound 2], the IC50 at wild type Kit is greater than 1000 nM; at D816V Kit, greater than 100 nM.
The corresponding values for `COc1cc2ncnc(N3CCN(c4ncc(NCc5ccccc5C)cn4)CC3)c2cc1OC` [Compound 54] are 100 to 1000 nM and 10 to 100 nM.
Regarding `COc1cc2ncnc(N3CCN(c4ncc(OCC5CC5)cn4)CC3)c2cc1OC` [Compound 6], the values for the IC50 at wild type Kit and at D816V Kit were greater than 1000 nM and greater than 100 nM, respectively.
Taken in the same sequence, the figures for `COc1cc2ncnc(N3CCN(c4ncc(Cc5ccccc5)cn4)CC3)c2cc1OC1CCN(C)C1` (centres unmarked) [Compound 92] were 100 to 1000 nM and 1.01 to 10 nM.
Take `COc1cc2ncnc(N3CCN(c4ncc(NC(=O)Cc5ccccc5)cn4)CC3)c2cc1OC` [Compound 76]: the results for the IC50 on wild type Kit and on D816V Kit were 100 to 1000 nM and 10 to 100 nM, respectively.
On to `COc1cc2ncnc(N3CCN(c4ncc(Br)c(OC)n4)CC3)c2cc1OC` [Compound 41], for which the half-maximal inhibitory concentration (IC50) on wild type Kit was greater than 1000 nM. At D816V Kit, the IC50 was greater than 100 nM and the “times more potent” value is reported as “less than 5 times”.
`COc1cc2ncnc(N3CCN(c4ncc(Nc5ccc(F)cc5)cn4)CC3)c2cc1OCC1CCN(C)CC1` [Compound 132]: the half-maximal inhibitory concentration (IC50) at wild type Kit is 11 to 100 nM; on D816V Kit it was 1.01 to 10 nM.
Taken in the same sequence, the figures for `COc1cc2ncnc(N3CCN(c4ncc(Cc5ccccc5)cn4)CC3)c2cc1OC1CCN(CCO)C1` (centres unmarked) [Compound 118] were 11 to 100 nM and 1.01 to 10 nM.
The corresponding values for `COc1cc2ncnc(N3CCN(c4ncc(Cc5ccccc5)cn4)CC3)c2cc1OCC1(F)CCN(C)CC1` [Compound 131] are less than 10 nM and less than 1 nM.
Consider `COc1cc2ncnc(N3CCN(c4ncc(OCc5ccccc5)cn4)C[C@H]3C)c2cc1OC` [Compound 67], for which, at wild type Kit, the half-inhibitory concentration (IC50) is greater than 1000 nM. Further, on D816V Kit, the IC50 is greater than 100 nM and the “times more potent” value is reported as “less than 5 times”.
As for `COc1ccc2c(N3CCN(c4ncc(OCc5ccccc5)cn4)CC3)ncnc2c1` [Compound 8], the concentration for half-maximal inhibition (IC50) on wild type Kit is greater than 1000 nM; at D816V Kit it was 10 to 100 nM.
On to `COc1cc2ncnc(N3CCN(c4ncc(Cc5ccccc5)cn4)C[C@@H]3C)c2cc1OC` [Compound 27], for which the IC50 on wild type Kit was greater than 1000 nM; at D816V Kit, greater than 100 nM.
For `COc1cc2ncnc(N3CCN(c4ncc(Cc5ccccc5)cn4)CC3)c2cc1OCC1CCCNC1` (centres unmarked) [Compound 97], the 50% inhibitory concentration (IC50) on wild type Kit was 11 to 100 nM; on D816V Kit, less than 1 nM.
For the compound `COc1cc2ncnc(N3CCN(c4ncc(Cc5ccccc5)cn4)CC3)c2cc1OC[C@H]1CCCN(C)C1` [Compound 115], the results for the IC50 at wild type Kit and at D816V Kit were 11 to 100 nM and 1.01 to 10 nM, respectively.
Regarding `COc1cc2ncnc(N3CCN(c4ncc(Cc5ccccc5)cn4)CC3)c2cc1OC1CCN(CCO)CC1` [Compound 129], on wild type Kit, the IC50 lay within 11 to 100 nM. Further, on D816V Kit, the IC50 lay in the range of 1.01 to 10 nM and the “times more potent” value is on record as “less than 5 times”.
Take `CN1CCC(COc2ccc3ncnc(N4CCN(c5ncc(Cc6ccccc6)c(N)n5)CC4)c3c2)CC1` [Compound 95]: the IC50 lay within 11 to 100 nM on wild type Kit and 1.01 to 10 nM at D816V Kit.
Taken in the same sequence, the figures for `COc1cc2ncnc(N3CCN(c4ncc(OCc5ccccc5)cn4)C(C)C3)c2cc1OC` (centres unmarked) [Compound 66] were greater than 1000 nM and 10 to 100 nM.
The corresponding values for `COc1cc2ncnc(N3CCN(c4ncc(OCc5ccccc5C)cn4)CC3)c2cc1OC` [Compound 65] are greater than 1000 nM and 10 to 100 nM.
Taken in the same sequence, the figures for `COc1cc2ncnc(N3CCN(c4ncc(OC(C)c5ccccc5)cn4)CC3)c2cc1OC` (centres unmarked) [Compound 63] were 100 to 1000 nM and 10 to 100 nM.
With `COc1cc2ncnc(N3CCN(c4ncc(OCc5ccc(C(F)(F)F)cc5)cn4)CC3)c2cc1OC` [Compound 102, 6,7-dimethoxy-4-(4-(5-((4-(trifluoromethyl)benzyl)oxy)pyrimidin-2-yl)piperazin-1-yl)quinazoline], the figures for the half-maximal inhibitory concentration (IC50) at wild type Kit and on D816V Kit were greater than 1000 nM and greater than 100 nM, respectively.
